In patent US20200339548A1, “PYRIMIDINE DERIVATIVES AND THEIR USE FOR THE TREATMENT OF CANCER” (Adorx Therapeutics Limited, priority 2017, published 2020):
Where a name gives a salt, the structure may show the parent alone. Read-outs that look alike come from different tables or passages of the source.

How the values were obtained:
Adenosine A2a receptor = biological target: T1, Adenosine A2a receptor (Homo sapiens, UniProt P29274); assay: Adenosine receptor TR-FRET binding assay, A2a; conditions: displacement of 100 nM CA200645, CHO cell membranes
T1 construct: expressed in transfected cells; host or cells: CHO cell membranes
Procedure, shortened: (§1)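 Competition TR-FRET binding in CHO cell membranes expressing terbium-labelled human receptors, displacing fluorescent XAC (CA200645; 30 nM for A2b, 100 nM for A1, A2a, A3); 2 h at room temperature with saponin buffer, 1% DMSO. 665/620 nm ratio; non-specific with 10 μM XAC; Ki by Cheng–Prusoff from IC50.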

Adenosine A2b receptor = biological target: T2, Adenosine A2b receptor (Homo sapiens, UniProt P29275); assay: Adenosine receptor TR-FRET binding assay, A2b; conditions: Table 9, further testing; displacement of 30 nM CA200645, CHO cell membranes
T2 construct: expressed in transfected cells; host or cells: CHO cell membranes
T2 sequence (P29275 1-332): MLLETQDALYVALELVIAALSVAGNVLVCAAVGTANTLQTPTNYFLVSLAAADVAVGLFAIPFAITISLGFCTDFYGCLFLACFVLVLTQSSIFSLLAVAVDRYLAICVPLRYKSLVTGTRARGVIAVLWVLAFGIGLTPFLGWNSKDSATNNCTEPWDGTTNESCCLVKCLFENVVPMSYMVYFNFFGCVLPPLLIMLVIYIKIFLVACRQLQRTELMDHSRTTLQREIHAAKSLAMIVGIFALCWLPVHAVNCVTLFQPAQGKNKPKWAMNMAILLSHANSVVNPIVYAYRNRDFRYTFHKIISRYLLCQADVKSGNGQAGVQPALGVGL
Procedure, shortened: as §1

Adenosine A1 receptor = biological target: T3, Adenosine A1 receptor (Homo sapiens, UniProt P30542); assay: Adenosine receptor TR-FRET binding assay, A1; conditions: Table 9, further testing; displacement of 100 nM CA200645, CHO cell membranes
T3 construct: expressed in transfected cells; host or cells: CHO cell membranes
T3 sequence (P30542 1-326): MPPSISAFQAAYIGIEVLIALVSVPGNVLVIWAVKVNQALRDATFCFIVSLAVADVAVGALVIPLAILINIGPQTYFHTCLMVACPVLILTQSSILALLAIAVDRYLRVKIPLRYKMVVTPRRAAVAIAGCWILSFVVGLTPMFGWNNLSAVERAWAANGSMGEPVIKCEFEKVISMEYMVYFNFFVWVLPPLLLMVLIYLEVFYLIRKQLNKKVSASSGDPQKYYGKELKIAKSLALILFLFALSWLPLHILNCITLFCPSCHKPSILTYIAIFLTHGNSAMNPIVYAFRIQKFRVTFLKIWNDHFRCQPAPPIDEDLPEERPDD
Procedure, shortened: as §1

Human PBMCs = assay: CD3/CD28 stimulated IL-2 release NECA reversal assay; assay type: cell-based; conditions: Homo sapiens, PBMC, read-out: IL-2 release NECA reversal IC50 (nM), 1 uM NECA, 24 hours
Description: Blood is drawn from healthy volunteers using sodium citrate as the anticoagulant (0.3% final concentration). […] 50 μl diluted compound mix is added to the cells, to obtain final concentrations of 1 ug/ml CD28 antibody, 1 uM NECA and 0.003-10 μM adenosine receptor antagonist. Assay plates are incubated for 24 hours at 37° C. in a humidified incubator.

Adenosine A3 receptor = biological target: T4, Adenosine A3 receptor (Homo sapiens, UniProt P0DMS8); assay: Adenosine receptor TR-FRET binding assay, A3
T4 construct: expressed in transfected cells; host or cells: CHO cell membranes
T4 sequence (P0DMS8 1-318): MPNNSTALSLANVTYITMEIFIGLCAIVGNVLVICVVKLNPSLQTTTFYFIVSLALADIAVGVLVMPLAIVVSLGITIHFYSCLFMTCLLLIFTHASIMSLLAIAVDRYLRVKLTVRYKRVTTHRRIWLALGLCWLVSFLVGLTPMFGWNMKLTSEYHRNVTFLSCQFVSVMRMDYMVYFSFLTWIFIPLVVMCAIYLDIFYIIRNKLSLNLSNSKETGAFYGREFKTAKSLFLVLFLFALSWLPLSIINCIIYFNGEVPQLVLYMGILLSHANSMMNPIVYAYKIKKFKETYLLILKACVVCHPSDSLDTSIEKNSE
Description: All FRET binding experiments were conducted at room temperature in white 384-well plates, in assay binding buffer containing 1× LabMed (Cisbio, France), 100 μg/mL saponin, 1% DMSO and 0.02% pluronic acid. Binding of the fluorescently labelled Adenosine receptor antagonist XAC (CA200645, FRET acceptor) to terbium-labelled A1, A2a, A2b and A3 adenosine receptors (FRET donors) was detected by time-resolved FRET due to the close proximity of the donor and acceptor in a binding event. To investigate the ability of unlabelled test compounds to bind to Adenosine A1, A2a, A2b and A3 receptors, dose response curves were constructed that determined the ability of a range of concentrations to inhibit the binding of 30 nM CA200645 to the A2b receptor and 100 nM CA200645 to the A1, A2a, and A3 receptor.
Serial dilution (1:3 dilutions) of test compounds in neat DMSO and transfer of a 400 nL sample of test compound into the assay plate was carried out using the Mosquito (TTP Labtech, UK). The compound samples were incubated for 2 hours at room temperature with a fixed concentration of CA200645 defined for each receptor (see above) and CHO cell membranes containing the human Adenosine A1 (0.5 μg/well), A2a (0.3 μg/well), A2b (1 μg/well) or A3 (1 μg/well) receptor in 40 μL of assay buffer. Total and non-specific binding of CA200645 was determined in the absence and presence of 10 μM XAC, respectively.
Following 2 hours incubation, the level of CA200645 binding was detected on a Pherastar FSX (BMG Labtech, Germany) using standard TR-FRET settings. The terbium donor was excited with three laser flashes at a wavelength of 337 nm, and donor and acceptor emission was detected at 620 nm and 665 nm wavelengths, respectively. FRET ratios were obtained by multiplying the acceptor/donor ratio value by 10,000. Specific binding was determined by subtracting the non-specific binding FRET ratio from the total binding FRET ratio. Compound IC50 curves were analysed using GraphPad Prism 7.0 (GraphPad, USA) and Ki affinity values were determined from the obtained […] values using the method of Cheng and Prusoff.

[1] = Table 9, further testing, displacement of 100 nM CA200645, CHO cell membranes, read-out: A3 Ki

T1 sequence (P29274 whole entry): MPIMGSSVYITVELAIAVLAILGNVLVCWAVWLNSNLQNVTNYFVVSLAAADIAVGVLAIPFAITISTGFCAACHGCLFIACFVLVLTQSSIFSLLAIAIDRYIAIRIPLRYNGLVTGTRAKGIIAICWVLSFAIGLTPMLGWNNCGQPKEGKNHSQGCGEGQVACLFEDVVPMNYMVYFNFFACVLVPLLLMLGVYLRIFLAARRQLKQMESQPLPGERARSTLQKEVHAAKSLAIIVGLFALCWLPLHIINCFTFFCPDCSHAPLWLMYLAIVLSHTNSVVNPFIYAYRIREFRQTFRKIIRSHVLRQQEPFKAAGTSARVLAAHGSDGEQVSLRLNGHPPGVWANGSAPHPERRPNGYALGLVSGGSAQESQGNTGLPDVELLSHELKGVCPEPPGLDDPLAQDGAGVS

Row | SMILES | Ki (Adenosine A2a receptor; Table 8, Cheng and Prusoff) [nM] | Ki (Adenosine A2a receptor; Table 9, further testing) [nM] | Ki (Adenosine A2b receptor) [nM] | Ki (Adenosine A1 receptor) [nM] | IC50 (Human PBMCs) [nM] | Ki (Adenosine A3 receptor) [nM] | Ki (Adenosine A3 receptor; [1]) [nM]
1 | COc1cccc(F)c1CNC(=O)c1cnc(-c2cccc(F)c2)nc1N [Example 5.2, 4-Amino-N-[(2-fluoro-6-methoxy-phenyl)methyl]-2-(3-fluorophenyl)pyrimidine-5-carboxamide] | 20 | 20 | 113 | 66 | 1920 |  | 
2 | CCOc1cccc(F)c1CNC(=O)c1cnc(-c2cccc(F)c2)nc1N [Example 5.3, 4-Amino-N-[(2-ethoxy-6-fluoro-phenyl)methyl]-2-(3-fluorophenyl)pyrimidine-5-carboxamide] | 20 | 20 | 341 |  | 1540 |  | 
3 | Nc1nc(-c2ccco2)ncc1C(=O)NCc1c(Cl)cccc1Cl [Example 5.16, 4-Amino-N-[(2,6-dichlorophenyl)methyl]-2-(2-furyl)pyrimidine-5-carboxamide] | 0.93 | 0.64 | 297 | 1350 | 102 |  | 
4 | Nc1nc(-c2ccco2)ncc1C(=O)NC1CCc2ccccc21 (centres unmarked) [Example 5.23, 4-Amino-2-(2-furyl)-N-indan-1-yl-pyrimidine-5-carboxamide] | 10 | 10 |  | 4750 | 381 |  | 
5 | Nc1nc(-c2ccco2)ncc1C(=O)NC1Cc2ccccc2C1 [Example 5.24, 4-Amino-2-(2-furyl)-N-indan-2-yl-pyrimidine-5-carboxamide] | 2.4 | 2.6 | 1600 | 1270 | 364 |  | 
6 | COc1cc(CNC(=O)c2cnc(-c3cccc(F)c3)nc2N)cc(OC)c1 [Example 10.9, 4-Amino-N-[(3,5-dimethoxyphenyl)methyl]-2-(3-fluorophenyl)pyrimidine-5-carboxamide] | 661 | 661 | 1170 | 811 |  | 1160 | 
7 | Nc1nc(-c2cccc(F)c2)ncc1C(=O)NCc1cccc(C(F)(F)F)c1 [Example 10.11, 4-Amino-2-(3-fluorophenyl)-N-[[3-(trifluoromethyl)phenyl]methyl]pyrimidine-5-carboxamide] | 976 | 976 | 3190 | 632 |  |  | 1850
8 | Nc1nc(-c2cccc(F)c2)ncc1C(=O)NCc1ncccc1Cl [Example 10.12, 4-Amino-N-[(3-chloro-2-pyridyl)methyl]-2-(3-fluorophenyl)pyrimidine-5-carboxamide] | 36 | 36 | 536 | 400 |  |  | 371
9 | Cc1cccnc1CNC(=O)c1c(N)nc(-c2ccco2)nc1Cl [Example 13, 4-Amino-6-chloro-2-(2-furyl)-N-[(3-methyl-2-pyridyl)methyl]pyrimidine-5-carboxamide] | 20 | 20 | 3890 | 314 |  |  | 1190
10 | CC(=O)NCCOc1nc(-c2ccco2)nc(N)c1C(=O)NCc1ncccc1C [Example 20, 4-(2-Acetamidoethoxy)-6-amino-2-(2-fury)-N-[(3-methyl-2-pyridyl)methyl]pyrimidine-5-carboxamide] |  | 1.1 | 508 | 109 |  |  | 830
11 | Cc1cccnc1CNC(=O)c1c(N)nc(-c2ccco2)nc1OCCO [Example 20.1, 4-Amino-2-(2-furyl)-6-(2-hydroxyethoxy)-N-[(3-methyl-2-pyridyl)methyl]pyrimidine-5-carboxamide] |  | 0.13 | 107 | 5.4 |  |  | 86
12 | Cc1cccnc1CNC(=O)c1c(N)nc(-c2ccco2)nc1OCC(F)(F)F [Example 20.2, 4-Amino-2-(2-furyl)-N-[(3-methyl-2-pyridyl)methyl]-6-(2,2,2-trifluoroethoxy)pyrimidine-5-carboxamide] |  | 0.21 | 37 | 4 |  |  | 9.9
13 | Cc1cccnc1CNC(=O)c1c(N)nc(-c2ccco2)nc1OCC(C)C [Example 20.3, 4-Amino-2-(2-furyl)-6-isobutoxy-N-[(3-methyl-2-pyridyl)methyl]pyrimidine-5-carboxamide] |  | 0.47 | 174 | 4.1 |  |  | 1.7
14 | COCCOc1nc(-c2ccco2)nc(N)c1C(=O)NCc1ncccc1C [Example 20.6, 4-Amino-2-(2-furyl)-6-(2-methoxyethoxy)-N-[(3-methyl-2-pyridyl)methyl]pyrimidine-5-carboxamide] |  | 0.54 | 382 | 19 |  |  | 5.6
15 | Cc1cccnc1CNC(=O)c1c(N)nc(-c2ccco2)nc1OCCCO [Example 20.8, 4-Amino-2-(2-furyl)-6-(3-hydroxypropoxy)-N-[(3-methyl-2-pyridyl)methyl]pyrimidine-5-carboxamide] |  | 0.199 | 165 | 7.5 |  |  | 24
16 | CCCOc1nc(-c2ccco2)nc(N)c1C(=O)NCc1ncccc1C [Example 20.9, 4-Amino-2-(2-furyl)-N-[(3-methyl-2-pyridyl)methyl]-6-propoxy-pyrimidine-5-carboxamide] |  | 0.52 | 384 | 44 |  |  | 18
17 | COCC(C)Oc1nc(-c2ccco2)nc(N)c1C(=O)NCc1ncccc1C (centres unmarked) [Example 20.12, 4-Amino-2-(2-furyl)-6-(2-methoxy-1-methyl-ethoxy)-N-[(3-methyl-2-pyridyl)methyl]pyrimidine-5-carboxamide] |  | 0.21 | 540 | 13 |  |  | 1.4
18 | Cc1cccnc1CNC(=O)c1c(N)nc(-c2ccco2)nc1OCCN [Example 23.1, 4-Amino-6-(2-aminoethoxy)-2-(2-furyl)-N-[(3-methyl-2-pyridyl)methyl]pyrimidine-5-carboxamide] |  | 0.62 | 490 | 59 |  |  | 73
19 | Cc1cccnc1CNC(=O)c1c(N)nc(-c2ccco2)nc1OCCCN [Example 23.5, 4-Amino-6-(3-aminopropoxy)-2-(2-furyl)-N-[(3-methyl-2-pyridyl)methyl]pyrimidine-5-carboxamide dihydrochloride] |  | 23 | 3060 | 1060 |  |  | 2150
